# pIC50: −log10 of the molar value. Activity calls are given as the source filed them. No cut-off for these calls is given here. Where a SMILES comes first, the peptide text is derived from it. [ ]: non-standard residue; d: D form.
# How the values were obtained:
# [1] = biological target: T1, C-X-C chemokine receptor type 4 (Homo sapiens, UniProt P61073); assay: Displacement of 12G5 mAb from CXCR4 (unknown origin) expressed in CHO cells incubated for 40 mins by spectrophotometric method; assay type: cell-based
# [2] = tested on: Human immunodeficiency virus 1; assay: Antiviral activity against HIV-1 X4 NL4-3 infected in human PBMC assessed as inhibition of viral replication by measuring reduction in p24 antigen level at 10 uM measured after 5 days by ELISA; assay type: functional, organism-based; conditions: time 5.0 day
# [3] = tested on: Human immunodeficiency virus 1; assay: Antiviral activity against HIV-1 R5 Bal-6 infected in human PBMC assessed as inhibition of viral replication by measuring reduction in p24 antigen level at 0.1 to 10 uM measured after 5 days by ELISA; assay type: functional, organism-based; conditions: dose 0.1-10 µM, time 5.0 day
# [4] = Cytotoxicity against human PBMC assessed as reduction in cell viability at 0.016 to 10 uM incubated for 5 days by CellTiter-Blue assay; assay type: toxicity, cell-based; conditions: 120 h, dose 0.016-10 µM, time 5 day
# [5] = biological target: C-C chemokine receptor type 5 (Homo sapiens) (UniProt P51681); assay: Displacement of C-45523 from CCR5 (unknown origin) expressed in CHO cells at 50 uM incubated for 40 mins by competitive binding assay based spectrophotometric method; assay type: cell-based
# [6] = biological target: T1, C-X-C chemokine receptor type 4; assay: Antagonist activity against CXCR4 in human SUP-T1 cells assessed as inhibition of SDF-1alpha-induced intracellular calcium mobilization by Fluo-4AM dye based fluorescence analysis; assay type: cell-based; conditions: filed as antagonist, dose 0.01-10 µM
# [7] = biological target: T1, C-X-C chemokine receptor type 4; assay: Antagonist activity against CXCR4 in human SUP-T1 cells assessed as inhibition of SDF-1alpha-induced intracellular calcium mobilization at 10 uM by Fluo-4AM dye based fluorescence analysis; assay type: cell-based; conditions: filed as antagonist
# [8] = biological target: T1, C-X-C chemokine receptor type 4; assay: Antagonist activity against CXCR4 in human SUP-T1 cells assessed as inhibition of SDF-1alpha-induced cell migration preincubated with cells for 30 mins followed by incubation with SDF-1alpha for 3 hrs by CellTiter-96 reagent based transwell assay; conditions: filed as antagonist, time 210.0 min
# [9] = biological target: T1, C-X-C chemokine receptor type 4; assay: Antagonist activity against CXCR4 in human SUP-T1 cells assessed as inhibition of SDF-1alpha-induced cell migration at 10 uM preincubated with cells for 30 mins followed by incubation with SDF-1alpha for 3 hrs by CellTiter-96 reagent based transwell assay; conditions: filed as antagonist, time 210.0 min
# [10] = biological target: T1, C-X-C chemokine receptor type 4; assay: Antagonist activity against EGFP-tagged CXCR4 (unknown origin) transfected in CHO cells assessed as inhibition of SDF-1alpha-induced receptor internalization at 0.01 to 10 uM preincubated for 10 mins followed by SDF-1alpha addition by confocal microscopy; assay type: cell-based; conditions: filed as antagonist, dose 0.01-10 µM
# [11] = biological target: T1, C-X-C chemokine receptor type 4; assay: Antagonist activity against EGFP-tagged CXCR4 (unknown origin) transfected in CHO cells assessed as inhibition of SDF-1alpha-induced receptor internalization at 10 uM preincubated for 10 mins followed by SDF-1alpha addition by confocal microscopy; assay type: cell-based; conditions: filed as antagonist
# [12] = tested on: C-X-C chemokine receptor type 4 (Homo sapiens), P61073 [F87A]; assay: Displacement of 12G5 mAb from CXCR4 F87A mutant (unknown origin) expressed in CHO cells at 500 nM incubated for 40 mins by spectrophotometric method; assay type: cell-based
# [13] = tested on: C-X-C chemokine receptor type 4 (Homo sapiens), P61073 [W94A]; assay: Displacement of 12G5 mAb from CXCR4 W94A mutant (unknown origin) expressed in CHO cells at 500 nM incubated for 40 mins by spectrophotometric method; assay type: cell-based
# [14] = tested on: C-X-C chemokine receptor type 4 (Homo sapiens), P61073 [Y116A]; assay: Displacement of 12G5 mAb from CXCR4 Y116A mutant (unknown origin) expressed in CHO cells at 500 nM incubated for 40 mins by spectrophotometric method; assay type: cell-based
# [15] = tested on: C-X-C chemokine receptor type 4 (Homo sapiens), P61073 [N119A]; assay: Displacement of 12G5 mAb from CXCR4 N119A mutant (unknown origin) expressed in CHO cells at 500 nM incubated for 40 mins by spectrophotometric method; assay type: cell-based
# [16] = tested on: C-X-C chemokine receptor type 4 (Homo sapiens), P61073 [D97A]; assay: Displacement of 12G5 mAb from CXCR4 D97A mutant (unknown origin) expressed in CHO cells at 500 nM incubated for 40 mins by spectrophotometric method; assay type: cell-based
# [17] = tested on: C-X-C chemokine receptor type 4 (Homo sapiens), P61073 [H113A]; assay: Displacement of 12G5 mAb from CXCR4 H113A mutant (unknown origin) expressed in CHO cells at 500 nM incubated for 40 mins by spectrophotometric method; assay type: cell-based
# [18] = tested on: C-X-C chemokine receptor type 4 (Homo sapiens), P61073 [W161A]; assay: Displacement of 12G5 mAb from CXCR4 W161A mutant (unknown origin) expressed in CHO cells at 500 nM incubated for 40 mins by spectrophotometric method; assay type: cell-based
# [19] = tested on: C-X-C chemokine receptor type 4 (Homo sapiens), P61073 [D193A]; assay: Displacement of 12G5 mAb from CXCR4 D193A mutant (unknown origin) expressed in CHO cells at 500 nM incubated for 40 mins by spectrophotometric method; assay type: cell-based
# [20] = tested on: C-X-C chemokine receptor type 4 (Homo sapiens), P61073 [W195A]; assay: Displacement of 12G5 mAb from CXCR4 W195A mutant (unknown origin) expressed in CHO cells at 500 nM incubated for 40 mins by spectrophotometric method; assay type: cell-based
# [21] = tested on: C-X-C chemokine receptor type 4 (Homo sapiens), P61073 [E288A]; assay: Displacement of 12G5 mAb from CXCR4 E288A mutant (unknown origin) expressed in CHO cells at 500 nM incubated for 40 mins by spectrophotometric method; assay type: cell-based
# [22] = tested on: C-X-C chemokine receptor type 4 (Homo sapiens), P61073 [E288D]; assay: Displacement of 12G5 mAb from CXCR4 E288D mutant (unknown origin) expressed in CHO cells at 500 nM incubated for 40 mins by spectrophotometric method; assay type: cell-based
# [23] = tested on: C-X-C chemokine receptor type 4 (Homo sapiens), P61073 [Y45A]; assay: Displacement of 12G5 mAb from CXCR4 Y45A mutant (unknown origin) expressed in CHO cells at 500 nM incubated for 40 mins by spectrophotometric method; assay type: cell-based; conditions: filed as antagonist
# [24] = tested on: C-X-C chemokine receptor type 4 (Homo sapiens), P61073 [T117A]; assay: Displacement of 12G5 mAb from CXCR4 T117A mutant (unknown origin) expressed in CHO cells at 500 nM incubated for 40 mins by spectrophotometric method; assay type: cell-based; conditions: filed as antagonist
# [25] = tested on: C-X-C chemokine receptor type 4 (Homo sapiens), P61073 [D262N]; assay: Displacement of 12G5 mAb from CXCR4 D262N mutant (unknown origin) expressed in CHO cells at 500 nM incubated for 40 mins by spectrophotometric method; assay type: cell-based; conditions: filed as antagonist
# [26] = tested on: C-X-C chemokine receptor type 4 (Homo sapiens), P61073 [E288Q]; assay: Displacement of 12G5 mAb from CXCR4 E288Q mutant (unknown origin) expressed in CHO cells at 500 nM incubated for 40 mins by spectrophotometric method; assay type: cell-based; conditions: filed as antagonist
# Sequence of C-X-C chemokine receptor type 4 (Homo sapiens), P61073 [E288Q] (P61073 whole entry E288Q): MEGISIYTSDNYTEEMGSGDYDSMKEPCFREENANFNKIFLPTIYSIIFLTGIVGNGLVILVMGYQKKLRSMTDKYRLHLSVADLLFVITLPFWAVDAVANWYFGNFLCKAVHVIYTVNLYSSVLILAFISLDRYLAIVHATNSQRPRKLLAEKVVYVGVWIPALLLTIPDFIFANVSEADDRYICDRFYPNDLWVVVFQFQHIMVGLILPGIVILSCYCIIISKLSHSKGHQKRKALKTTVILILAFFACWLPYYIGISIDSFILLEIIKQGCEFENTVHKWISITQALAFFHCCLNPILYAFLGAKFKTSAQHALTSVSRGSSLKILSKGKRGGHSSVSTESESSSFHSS
# T1 sequence (P61073 whole entry): as the sequence (P61073 whole entry E288Q) above, with Q288E counted along it
# Sequence of C-C chemokine receptor type 5 (Homo sapiens) (P51681 whole entry, looked up): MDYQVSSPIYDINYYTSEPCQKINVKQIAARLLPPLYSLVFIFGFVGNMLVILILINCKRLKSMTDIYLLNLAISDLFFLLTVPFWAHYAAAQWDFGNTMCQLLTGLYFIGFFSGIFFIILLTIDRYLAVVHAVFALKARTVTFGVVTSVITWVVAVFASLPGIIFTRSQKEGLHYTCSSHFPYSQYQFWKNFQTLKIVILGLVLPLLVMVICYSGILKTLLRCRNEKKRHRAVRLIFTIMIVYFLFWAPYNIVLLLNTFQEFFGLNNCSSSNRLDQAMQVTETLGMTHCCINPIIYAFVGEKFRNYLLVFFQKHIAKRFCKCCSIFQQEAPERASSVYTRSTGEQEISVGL
# Sequence of C-X-C chemokine receptor type 4 (Homo sapiens), P61073 [F87A] (P61073 whole entry F87A): as the sequence (P61073 whole entry E288Q) above, with F87A, Q288E counted along it
# Sequence of C-X-C chemokine receptor type 4 (Homo sapiens), P61073 [W161A] (P61073 whole entry W161A): as the sequence (P61073 whole entry E288Q) above, with W161A, Q288E counted along it
# Sequence of C-X-C chemokine receptor type 4 (Homo sapiens), P61073 [D193A] (P61073 whole entry D193A): as the sequence (P61073 whole entry E288Q) above, with D193A, Q288E counted along it
# Sequence of C-X-C chemokine receptor type 4 (Homo sapiens), P61073 [H113A] (P61073 whole entry H113A): as the sequence (P61073 whole entry E288Q) above, with H113A, Q288E counted along it
# Sequence of C-X-C chemokine receptor type 4 (Homo sapiens), P61073 [W195A] (P61073 whole entry W195A): as the sequence (P61073 whole entry E288Q) above, with W195A, Q288E counted along it
# Sequence of C-X-C chemokine receptor type 4 (Homo sapiens), P61073 [N119A] (P61073 whole entry N119A): as the sequence (P61073 whole entry E288Q) above, with N119A, Q288E counted along it
# Sequence of C-X-C chemokine receptor type 4 (Homo sapiens), P61073 [T117A] (P61073 whole entry T117A): as the sequence (P61073 whole entry E288Q) above, with T117A, Q288E counted along it
# Sequence of C-X-C chemokine receptor type 4 (Homo sapiens), P61073 [Y116A] (P61073 whole entry Y116A): as the sequence (P61073 whole entry E288Q) above, with Y116A, Q288E counted along it
# Sequence of C-X-C chemokine receptor type 4 (Homo sapiens), P61073 [D97A] (P61073 whole entry D97A): as the sequence (P61073 whole entry E288Q) above, with D97A, Q288E counted along it
# Sequence of C-X-C chemokine receptor type 4 (Homo sapiens), P61073 [E288A] (P61073 whole entry E288A): as the sequence (P61073 whole entry E288Q) above, with Q288A counted along it
# Sequence of C-X-C chemokine receptor type 4 (Homo sapiens), P61073 [E288D] (P61073 whole entry E288D): as the sequence (P61073 whole entry E288Q) above, with Q288D counted along it
# Sequence of C-X-C chemokine receptor type 4 (Homo sapiens), P61073 [D262N] (P61073 whole entry D262N): as the sequence (P61073 whole entry E288Q) above, with D262N, Q288E counted along it
# Sequence of C-X-C chemokine receptor type 4 (Homo sapiens), P61073 [W94A] (P61073 whole entry W94A): as the sequence (P61073 whole entry E288Q) above, with W94A, Q288E counted along it
# Sequence of C-X-C chemokine receptor type 4 (Homo sapiens), P61073 [Y45A] (P61073 whole entry Y45A): as the sequence (P61073 whole entry E288Q) above, with Y45A, Q288E counted along it
smiles,measurement,setting,value
CC(C)C[C@@H](N)C(=O)NCC(=O)N[C@H](C)C(=O)N[C@H](CO)C(=O)N[C@H](Cc1c[nH]c2ccccc12)C(=O)N[C@H](Cc1cnc[nH]1)C(=O)N[C@H](CCCNC(=N)N)C(=O)N1CCC[C@@H]1C(=O)N[C@H](CC(=O)O)C(=O)N[C@H](CCCCN)C(=O)N[C@H](CCCCN)C(=O)N[C@H](CCCNC(=N)N)C(N)=O (H-[dL]G[dA][dS][dW][dH][dR][dP][dD][dK][dK][dR]-NH2),pIC50,[1],6.27
CC(C)C[C@@H](N)C(=O)NCC(=O)N[C@H](C)C(=O)N[C@H](CO)C(=O)N[C@H](Cc1c[nH]c2ccccc12)C(=O)N[C@H](Cc1cnc[nH]1)C(=O)N[C@H](CCCNC(=N)N)C(=O)N1CCC[C@@H]1C(=O)N[C@H](CC(=O)O)C(=O)N[C@H](CCCCN)C(=O)N[C@H](CCCCN)C(=O)N[C@H](CCCNC(=N)N)C(=O)N(CCCCCC(=O)O)[C@@H](CCCCN[C@H](CS)C(=O)N[C@H](C(=O)N[C@@H](CCCNC(=N)N)C(=O)N1CCC[C@H]1C(=O)N[C@@H](CC(N)=O)C(=O)N[C@@H](CC(N)=O)C(=O)N[C@@H](CC(N)=O)C(=O)N[C@H](C(=O)N[C@@H](CCCCN)C(=O)N[C@@H](CCCNC(=N)N)C(N)=O)[C@H](C)O)[C@H](C)O)C(N)=O,pIC50,[1],7.59
same,Activity,[2],Active
same,Activity,[3],inactive
same,Activity,[4],Non-Toxic
CC(C)C[C@@H](N)C(=O)NCC(=O)N[C@H](C)C(=O)N[C@H](CO)C(=O)N[C@H](Cc1c[nH]c2ccccc12)C(=O)N[C@H](Cc1cnc[nH]1)C(=O)N[C@H](CCCNC(=N)N)C(=O)N1CCC[C@@H]1C(=O)N[C@H](CC(=O)O)C(=O)N[C@H](CCCCN)C(=O)N[C@H](CCCCN)C(=O)N[C@H](CCCNC(=N)N)C(=O)N(CCCCCC(=O)O)[C@@H](CCCCN)C(=O)N[C@@H](CCCNC(=N)N)C(=O)N[C@@H](CCCCN)C(=O)N[C@H](CS)C(=O)N[C@H](C(=O)N[C@@H](CCCNC(=N)N)C(=O)N1CCC[C@H]1C(=O)N[C@@H](CC(N)=O)C(=O)N[C@@H](CC(N)=O)C(=O)N[C@@H](CC(N)=O)C(=O)N[C@H](C(N)=O)[C@H](C)O)[C@H](C)O,pIC50,[1],7.32
same,inhibition,[5],10.4%
CC(C)C[C@@H](N)C(=O)NCC(=O)N[C@H](C)C(=O)N[C@H](CO)C(=O)N[C@H](Cc1c[nH]c2ccccc12)C(=O)N[C@H](Cc1cnc[nH]1)C(=O)N[C@H](CCCNC(=N)N)C(=O)N1CCC[C@@H]1C(=O)N[C@H](CC(=O)O)C(=O)N[C@H](CCCCN)C(=O)N[C@H](CCCCN)C(=O)N[C@H](CCCNC(=N)N)C(=O)N(CCCCCC(=O)O)[C@@H](CCCCN)C(=O)N[C@@H](CCCNC(=N)N)C(=O)N[C@@H](CCCCN)C(=O)N[C@@H](CCC(N)=O)C(=O)N[C@@H](CCCNC(=N)N)C(=O)NCC(=O)N1CCC[C@H]1C(=O)NCC(=O)N[C@@H](CCCNC(=N)N)C(=O)N[C@@H](C)C(=O)N[C@@H](Cc1ccccc1)C(N)=O,inhibition,[5],17.2%
same,inhibition,[6],Dose-Dependent Effect
same,inhibition,[7],100%
same,inhibition,[8],Dose-Dependent Effect
same,inhibition,[9],100%
same,inhibition,[10],Active
same,inhibition,[11],100%
same,Activity,[2],Active
same,Activity,[3],inactive
same,Activity,[4],Non-Toxic
same,inhibition,[12],inactive
same,inhibition,[13],inactive
same,inhibition,[14],inactive
same,inhibition,[15],inactive
same,inhibition,[16],inactive
same,inhibition,[17],inactive
same,inhibition,[18],inactive
same,inhibition,[19],inactive
same,inhibition,[20],inactive
same,inhibition,[21],inactive
same,inhibition,[22],inactive
same,inhibition,[23],Active
same,inhibition,[24],Active
same,inhibition,[25],Active
same,inhibition,[26],Active

# Reference: ChEMBL document CHEMBL5247608, “HIV-1 gp120-CXCR4 recognition probed with synthetic nanomolar affinity D-peptides containing fragments of gp120 V3 loop” (Eur J Med Chem, 2022)
